According to US9745265B2, “4-heteroaryl substituted benzoic acid compounds as RORgammaT inhibitors and uses thereof” (Merck Sharp & Dohme Corp., priority 2012, dated 2017):

Molecular target: human RORgammaT-Ligand Binding Domain (LBD) (Homo sapiens (Human), UniProt P51449)
Test: RORγ-Ligand Binding Domain TR-FRET Assay (SRC1_2 co-activator peptide)
Format: biochemical
Settings: not given

human RORgammaT-Ligand Binding Domain (LBD), sequence (P51449 269-508): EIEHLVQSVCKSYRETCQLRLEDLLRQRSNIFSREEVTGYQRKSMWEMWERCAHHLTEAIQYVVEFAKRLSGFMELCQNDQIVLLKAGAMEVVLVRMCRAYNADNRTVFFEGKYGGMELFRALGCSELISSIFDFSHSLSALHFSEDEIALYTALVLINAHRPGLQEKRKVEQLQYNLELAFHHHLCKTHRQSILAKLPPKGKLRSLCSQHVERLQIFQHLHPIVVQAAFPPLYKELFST

Going from `O=C(O)c1ccc(-c2nn(C(=O)c3c(Cl)cccc3OC3CC3)c3ccccc23)cc1` [Example 1H, 4-(1-(2-chloro-6-cyclypropoxybenzoyl)-1H-indazol-3-yl)benzoic acid] to `O=C(O)c1ccc(-c2nn(C(=O)c3cccc4ccoc34)c3ccccc23)c(F)c1` [Example 1S, 4-[1-(1-benzofuran-7-ylcarbonyl)-1H-indazol-3-yl]-3-fluorobenzoic acid], the IC50 rises from 39 nM to 1480 nM (38-fold). The first is the more potent here.

`CC(C(=O)n1nc(-c2ccc(C(=O)O)cc2F)c2ccccc21)c1ccccc1` (stereo not drawn) [Example 1I, 3-fluoro-4-(1-(2-phenylpropanoyl)-1H-indazol-3-yl)benzoic acid] and `COCC(=O)n1nc(-c2ccc(C(=O)O)cc2F)c2ccccc21` [Example 1J, 3-fluoro-4-[1-(methoxy-acetyl)-1H-indazol-3-yl]benzoic acid] are within 1.5-fold of each other in IC50: 4320 nM for the first, 5570 nM for the second.

Compared with `C[C@@H]1CN(C(=O)c2ccc3c(-c4ccc(C(=O)O)cc4F)nn(C(=O)c4c(Cl)cccc4C(F)(F)F)c3c2)C[C@H](C)O1` [Example 2B, 4-(1-(2-chloro-6-(trifluoromethyl)benzoyl)-6-((2S,6R)-2,6-dimethylmorpholine-4-carbonyl)-1H-indazol-3-yl)-3-fluorobenzoic acid], `CS(=O)(=O)Nc1cc(-c2nn(C(=O)c3c(Cl)cccc3C(F)(F)F)c3cccnc23)ccc1C(=O)O` [Example 3B, 4-(1-(2-chloro-6-(trifluoromethyl)benzoyl)-1H-pyrazolo[4,3-b]pyridin-3-yl)-2-(methylsulfonamido)benzoic acid] is 110-fold higher in IC50: 15 nM for the first, 1650 nM for the second. The first is the more potent here.

Same assay, conditions: HIS-tagged RORγ-LBD 3 nM, biotinylated SRC1 LXXLL peptide 100 nM, incubated overnight at 4° C., 665/615 nm ratio

First: O=C1CCN(C(=O)c2ccc3c(-c4ccc(C(=O)O)cc4F)nn(C(=O)c4c(Cl)cccc4C(F)(F)F)c3c2)CC1 [Example 2C, 4-(1-(2-chloro-6-(trifluoromethyl)benzoyl)-6-(4-oxopiperidine-1-carbonyl)-1H-indazol-3-yl)-3-fluorobenzoic acid]
Second: CN(c1ccc2c(-c3ccc(C(=O)O)cc3F)nn(C(=O)c3c(Cl)cccc3C(F)(F)F)c2c1)S(C)(=O)=O [Example 5G, 4-(1-(2-chloro-6-(trifluoromethyl)benzoyl)-6-(N-methylmethylsulfonamido)-1H-indazol-3-yl)-3-fluorobenzoic acid]
The IC50 of the first is 380-fold lower: 4 nM for the first, 1500 nM for the second. The first is the more potent here.

Compared with `CC(=O)Nc1cc(-c2nn(C(=O)c3c(Cl)cccc3C(F)(F)F)c3ccccc23)ccc1C(=O)O` [Example 3A, 2-acetamido-4-(1-(2-chloro-6-(trifluoromethyl)benzoyl)-1H-indazol-3-yl)benzoic acid], `CC(O)C#Cc1ccc2c(-c3ccc(C(=O)O)cc3F)nn(C(=O)c3c(Cl)cccc3C(F)(F)F)c2c1` (stereo not drawn) [Example 12A, 4-(1-(2-chloro-6-(trifluoromethyl)benzoyl)-6-(3-hydroxybut-1-ynyl)-1H-indazol-3-yl)-3-fluorobenzoic acid] is 14-fold lower in IC50: 1470 nM for the first, 105 nM for the second.

First: O=C(O)c1ccc(-c2nn(C(=O)c3c(Cl)cccc3C(F)(F)F)c3cc(N4CCOCC4)ccc23)cc1 [Example 4H, 4-(1-(2-chloro-6-(trifluoromethyl)benzoyl)-6-morpholino-1H-indazol-3-yl)benzoic acid]
Second: Cc1cc(N2CCOCC2)cc(Cl)c1C(=O)n1nc(-c2ccc(C(=O)O)cc2F)c2ncccc21 [Example 40A, 4-(1-(2-chloro-6-methyl-4-morpholinobenzoyl)-1H-pyrazolo[4,3-b]pyridin-3-yl)-3-fluorobenzoic acid]
The IC50 of the first is 1.6-fold lower: 4320 nM for the first, 6870 nM for the second.

`CC(C)(C)OC(=O)Nc1cc2c(-c3ccc(C(=O)O)cc3F)cn(C(=O)c3c(Cl)cccc3C(F)(F)F)c2cn1` [Example 28A, 4-(5-(tert-butoxycarbonylamino)-1-(2-chloro-6-(trifluoromethyl)benzoyl)-1H-pyrrolo[2,3-c]pyridin-3-yl)-3-fluorobenzoic acid] and `CC(C)(C)OC(=O)Nc1cnc2c(-c3ccc(C(=O)O)cc3F)nn(C(=O)c3c(Cl)cccc3C(F)(F)F)c2c1` [Example 29A, 4-(6-(tert-butoxycarbonylamino)-1-(2-chloro-6-(trifluoromethyl)benzoyl)-1H-pyrazolo[4,3-b]pyridin-3-yl)-3-fluorobenzoic acid] are within 1.5-fold of each other in IC50: 182 nM for the first, 191 nM for the second.

Molecule `Cc1cc(N(C)C)cc(Cl)c1C(=O)n1nc(-c2ccc(C(=O)O)cc2F)c2ncccc21` [Example 42A, 4-(1-(2-chloro-4-(dimethylamino)-6-methylbenzoyl)-1H-pyrazolo[4,3-b]pyridin-3-yl)-3-fluorobenzoic acid] has an IC50 of 2320 nM.
